The test system of assay [1] is saliva RNases. The experiment in a line: RNase activity assay: cell line RNA incubated with treated saliva, read on Agilent TapeStation. Format: biochemical, human. Details: key: Pass (green) indicating sufficient RNase inactivation; Partial Pass (yellow) indicating partial RNase inactivation; Fail (red) indicating incomplete RNase inactivation. The procedure:
FIG. 27. Example of saliva RNase activity assays assayed on TapeStation High Sensitivity RNA ScreenTapes (5067; Agilent). Results from three independent assays are shown. Lanes 1-3 (left to right) are experimental controls including 500 μg RNA in RNase free water, untreated saliva without added cell line RNA, and untreated saliva incubated with cell line RNA. Lanes labeled “Incomplete RNase Inactivation” contain no ribosomal RNA bands, indicating RNase activity is present. Lanes labeled “Sufficient RNase Inactivation” contain sharp ribosomal bands (similar to RNA in water), indicating RNases have been inactivated. gDNA=genomic DNA.
(§1) To screen for chemical and protein-based reagents that inhibit saliva RNases, we developed an RNase activity assay in which purified cell line RNA was incubated for 30 min at 37° C. with saliva samples after treatment with potential reagents for RNase inhibition (FIG. 2.5.3). After incubation, RNA was purified and analyzed on an Agilent TapeStation. Sharpness of the eukaryotic ribosomal RNA bands (28S and 18S) were compared to determine RNase activity in the presence of various inhibitors. In addition, the Agilent TapeStation calculates an RNA Integrity Score (RIN) as a measure of RNA quality (RIN of 10-fully intact RNA, RIN of 1=fully degraded RNA), however contaminating nucleic acid (e.g., 16S and 23S rRNA from bacteria) interferes with this calculation.
as §1, with “10=fully” for “10-fully”, “calculation. In total, 54 unique reagents, concentrations, and buffer formulations were tested for their ability to inactivate RNases.” for “calculation.”

Assay [2] deals with RT-RPA reactions. The experiment in a line: RT-RPA interference (compatibility) testing of lysis and RNase inhibitor reagents, agarose gel. Format: biochemical. Also on record: key: Pass (green) indicates that reagents did not interfere with RT-RPA; Partial Pass: Partial pass (yellow) indicates that reagents had partial interference in RT-RPA; Fail (red) indicates reagents completely interfered with RT-RPA reactions. The method, then: FIG. 28. Reagent interference testing in RT-RPA. Lysis and RNase inhibitor reagents tested in RT-RPA using cDNA and RNA templates. RT-RPA reactions were prepared with varying concentrations of reagents, as labeled above (final concentrations in a 20 μl RT-RPA reaction are reported). Amplification products were run on a 2% agarose gel and band intensities were compared to control (No added reagent) reactions. Reactions labeled in red contain no reverse transcriptase. The expected size of the CXCL8 amplicon is indicated to the left of the gel. GuHCI=Guanidine hydrochloride, Triton=Triton X-100.
Reagents under consideration for the device were tested for compatibility with RT-RPA at the concentrations expected to be required for lysis. To test for interference, lysis or RNase inhibitor reagents were spiked into RT-RPA reactions with purified cell line RNA or cDNA as a template. Reactions were analyzed by agarose gel for the presence or absence of amplified products. […]

In assay [3] the test system is RT-RPA reaction. The experiment in a line: RT-RPA efficiency in the presence of Buffer 20 and Buffer 21. In kind it is biochemical. Conditions: 100 mM. The method, then: FIG. 7. Evaluation of optimized sample treatment and lysis buffer components. (A) RT-RPA efficiency in the presence of Buffer 20 and Buffer 21, using cell line RNA as (+) template and (−) no template control. (B) Optimized early/pre-infection diagnostic sample treatment and lysis tested on 5 individuals. −RT=no reverse transcriptase was included in the RT-RPA reaction, +RT=Superscript IV was added to the RPA reaction at a final concentration of 1 U/μl.
We therefore modified the lysis buffer formulation to Buffer 21 (5 mM TCEP-HCl, 7.5% Tween-20, 0.00167% Digitonin), which removed the guanidine hydrochloride and RNase Inhibitor. […] The present inventors lyophilized Buffer 21 into the selected lysis pad material and processed saliva from five donors through the device (FIG. 7B). This processing included expression of the sample from a collection pad, which pushed the sample through the lysis pad embedded with Buffer 21 and 4 U/μl of mRI, followed by the 10 μm filter, 100 mg of Chelex-100, and 1 μm filter. The resulting sample was used to reconstitute RPA reagents (Twist rehydration buffer and Twist enzymes), and reverse transcriptase and modified RPA primers were added to the reaction.

Assay [4] concerns primer dimers in multiplexed RT-RPA. The experiment in a line: Betaine as additive in multiplexed RT-RPA. In kind it is biochemical. Conditions: preliminary experiments. An excerpt:
A challenge of multiplexed RT-RPA is an increased tendency to form primer dimers that impact the readout on a lateral flow strip. We have explored the use of betaine as an additive to reduce the occurrence of primer dimers. Betaine can prevent the formation of primer dimers in isothermal amplification by effectively lowering the melting temperature of an oligo sequence. […] Thus, betaine may be an effective additive to reduce primer dimers in RT-RPA reactions in certain embodiments.

Setting [5] is: 100 mM final in RT-RPA reaction.

Counter-ions that a name gives are not always drawn.

In the case of `O[C@@H](CS)[C@@H](O)CS` [DTT], the “Inactivation of saliva RNases, Result” value in assay [1] (10 mM) is listed as “Fail”.

In the case of `O=C(O)CN(CCN(CC(=O)O)CC(=O)O)CC(=O)O` [EDTA], the “Compatibility in RT-RPA, Result” value was “Pass” in assay [2] (2 mM final in RT-RPA reaction), “Partial Pass” in assay [2] (6 mM final in RT-RPA reaction) and “Fail” in assay [2] (18 mM final in RT-RPA reaction).

Consider `N#CS.N=C(N)N` [GTC], for which the “Compatibility in RT-RPA, Result” value in assay [2] (setting [5]) was “Fail”.

With `Cl.N=C(N)N` [GuHCl, Guanidine hydrochloride], the results for the “Compatibility in RT-RPA, Result” value in assay [2] (setting [5]) and in assay [2] (200 mM final in RT-RPA reaction) were “Pass” and “Fail”, respectively. Moreover, in assay [3], the “Effect on RT-RPA reaction efficiency” value was “reduces the overall efficiency of the RT-RPA reaction”.

`Cl` [HCl, Hydrochloric acid]: in assay [2] (5 mM final in RT-RPA reaction), the “Compatibility in RT-RPA, Result” value is reported as “Pass”.

`CCCCCCCCCCCCOS(=O)(=O)[O-].[Na+]` [SDS, sodium dodecyl sulfate]: the “Compatibility in RT-RPA, Result” value in assay [2] (0.005% final in RT-RPA reaction) is recorded as “Fail”.

As to `Cl.O=C(O)CCP(CCC(=O)O)CCC(=O)O` [TCEP-HCl], the “Inactivation of saliva RNases, Result” value is listed as “Fail” in assay [1] (5 mM and 12.5 mM); “Pass” in assay [1] (50 mM). In addition, the entries for the “Compatibility in RT-RPA, Result” value in assay [2] (5 mM final in RT-RPA reaction) and in assay [2] (10 mM final in RT-RPA reaction) were “Partial Pass” and “Fail”, respectively.

Regarding `O=C(O)CCP(CCC(=O)O)CCC(=O)O` [TCEP-neutral], in assay [1] (5 mM and 50 mM), the “Inactivation of saliva RNases, Result” value is recorded as “Fail”.

`OCCS` [beta-mercaptoethanol]: in assay [1] (143 mM), the “Inactivation of saliva RNases, Result” value is given as “Fail”.

Consider `C[N+](C)(C)CC(=O)O` [betaine], for which the Primer noise entry in assay [4] is listed as “can reduce primer noise in multiplexed RT-RPA reactions”.

Consider `C[C@@H]1CC[C@@]2(OC1)O[C@H]1[C@@H](O)[C@H]3[C@@H]4CC[C@H]5C[C@@H](O[C@@H]6O[C@H](CO)[C@H](O[C@@H]7O[C@H](CO)[C@@H](O)[C@H](O[C@@H]8OC[C@@H](O)[C@H](O)[C@H]8O)[C@H]7O[C@@H]7O[C@H](CO)[C@H](O)[C@H](O[C@@H]8O[C@H](CO)[C@@H](O)[C@H](O)[C@H]8O)[C@H]7O)[C@H](O)[C@H]6O)[C@H](O)C[C@]5(C)[C@H]4CC[C@]3(C)[C@H]1[C@@H]2C` [digitonin], for which the “Compatibility in RT-RPA, Result” value in assay [2] (1% final in RT-RPA reaction) is listed as “Pass”.

With `CCCCCCCCCCCC(=O)N(C)CC(=O)[O-].[Na+]` [sarkosyl], the “Compatibility in RT-RPA, Result” value in assay [2] (0.01% final in RT-RPA reaction) is listed as “Partial Pass”; in assay [2] (0.1% final in RT-RPA reaction), “Fail”.

As for IGEPAL, the “Compatibility in RT-RPA, Result” value in assay [2] (0.01%-0.25% final in RT-RPA reaction) is reported as “Partial Pass”.

As to Triton X-100, the figures for the “Compatibility in RT-RPA, Result” value in assay [2] (1% final in RT-RPA reaction) and in assay [2] (5%-10% final in RT-RPA reaction) were “Pass” and “Partial Pass”, respectively.
